Earlier results as cited in patent US4384994A, “Renin inhibitory peptides” (Merck & Co., Inc., priority 1981, dated 1983).

Columns and labels:
hog renin = conditions: nephrectomized rats, after injection of hog renin; Gross et al. 1971
pepsin = pepsin (Homo sapiens, UniProt P0DJD8); conditions: Umezawa et al. 1970
Sequence of pepsin (P0DJD8 63-388): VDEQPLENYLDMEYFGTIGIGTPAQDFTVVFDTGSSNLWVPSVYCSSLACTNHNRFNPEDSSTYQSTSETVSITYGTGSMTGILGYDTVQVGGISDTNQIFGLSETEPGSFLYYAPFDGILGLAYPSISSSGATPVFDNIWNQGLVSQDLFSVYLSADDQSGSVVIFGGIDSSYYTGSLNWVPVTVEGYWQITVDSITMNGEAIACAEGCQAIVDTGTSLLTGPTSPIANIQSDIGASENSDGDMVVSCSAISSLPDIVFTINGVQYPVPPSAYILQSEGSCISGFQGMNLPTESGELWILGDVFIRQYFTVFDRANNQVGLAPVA

## pepstatin
Hog renin
  blood pressure in vivo: reduce blood pressure
pepsin
  inhibition of pepsin: inhibitor
